From patent publication US12565504B2, “Spirocyclic O-glycoprotein-2-acetamido-2-deoxy-3-d-glucopyranosidase inhibitors” (BIOGEN MA INC., priority 2019, dated 2026)

Legend:
P-gp (MDR1) = experiment: MDR1-MDCK Efflux Ratio Assay; type: in vitro ADME; conditions: dog, MDR1-MDCK cells, pH 7.4, read-out: MDR1-MDCK Efflux Ratio (B-A/A-B)
Experimental: MDR1-MDCK cell monolayers were grown to confluence on microporous polyester membranes in 96-well Corning insert plates. The permeability assay buffer was Hanks' Balanced Salt Solution containing 10 mM HEPES at pH of 7.4. Loperamide (1 μM) was used as a positive control P-gp substrate. Propranolol and Bestatin (1 μM) were used as high and low permeability comparators, respectively.
Test compounds or positive control P-gp substrate/permeability comprators were added to respective apical and basolateral chambers for bidirectional assessment of permeability. Receiver buffer (transport buffer supplemented with 1% bovine serum albumin) was added to respective receiver chambers. MDR1-MDCK cells were incubated with test compounds at 37° C. with 5% CO2 for 2 hr. Samples were collected from the donor chamber at both 0 and 120 minutes, and from the receiver chamber at 120 minutes. Test and control compound concentrations were determined using LC-MS/MS analysis. Each determination was performed in triplicate.

[1] = Rat Liver Microsome Stability Assay; conditions: rat liver microsomes 0.5 mg/mL, compound 1 μM; Qh 55 mL/minute/kg
Experimental: Aliquots (40 uL) at 0, 5, 10, 15, 25 and 40 minutes post NADPH addition (or compound addition for reactions in absence of NADPH) were transferred into individual 96-well plate wells containing 40 ng/ml of 8-cyclopently-1,3-dipropylxanthine (CPDPX, internal standard) in 160 uL acetonitrile:methanol (1:1 v/v).
The LC/MS/MS system consisted of an ultra high throughput RapidFire® 300 system (Agilent Technologies, Santa Clara, CA) coupled to a Triple Quad 5500 mass spectrometer (ABSciex, Foster City, CA). Sample load and wash were performed on a RapidFire® C4 cartridge using 0.1% formic acid in water as mobile phase A and sample elution using 0.1% formic acid in acetonitrile:methanol (1:1 v/v) as mobile phase B.
CLint, app (apparent intrinsic clearance) was calculated using the following equation for microsome stability.
[formula] • where “a” represents 45 grams of liver/kg of body weight for rat. • CLint,app (apparent intrinsic clearance) was calculated using the following equation for hepatocyte stability: • CLhep (hepatic clearance) was calculated using the following equation for microsomes
[formula] • using 55 mL/minute/kg as Qh (hepatic blood flow) for rat.

[2] = target: Recombinant full length human OGA enzyme (Homo sapiens (Human), UniProt O60502); experiment: OGA Enzyme Inhibition Biochemical Assay; conditions: 1 nM OGA, 100 μM 4-MUGlcNAc, 90 minutes, pH 6.4
Chain of Recombinant full length human OGA enzyme (O60502 whole entry): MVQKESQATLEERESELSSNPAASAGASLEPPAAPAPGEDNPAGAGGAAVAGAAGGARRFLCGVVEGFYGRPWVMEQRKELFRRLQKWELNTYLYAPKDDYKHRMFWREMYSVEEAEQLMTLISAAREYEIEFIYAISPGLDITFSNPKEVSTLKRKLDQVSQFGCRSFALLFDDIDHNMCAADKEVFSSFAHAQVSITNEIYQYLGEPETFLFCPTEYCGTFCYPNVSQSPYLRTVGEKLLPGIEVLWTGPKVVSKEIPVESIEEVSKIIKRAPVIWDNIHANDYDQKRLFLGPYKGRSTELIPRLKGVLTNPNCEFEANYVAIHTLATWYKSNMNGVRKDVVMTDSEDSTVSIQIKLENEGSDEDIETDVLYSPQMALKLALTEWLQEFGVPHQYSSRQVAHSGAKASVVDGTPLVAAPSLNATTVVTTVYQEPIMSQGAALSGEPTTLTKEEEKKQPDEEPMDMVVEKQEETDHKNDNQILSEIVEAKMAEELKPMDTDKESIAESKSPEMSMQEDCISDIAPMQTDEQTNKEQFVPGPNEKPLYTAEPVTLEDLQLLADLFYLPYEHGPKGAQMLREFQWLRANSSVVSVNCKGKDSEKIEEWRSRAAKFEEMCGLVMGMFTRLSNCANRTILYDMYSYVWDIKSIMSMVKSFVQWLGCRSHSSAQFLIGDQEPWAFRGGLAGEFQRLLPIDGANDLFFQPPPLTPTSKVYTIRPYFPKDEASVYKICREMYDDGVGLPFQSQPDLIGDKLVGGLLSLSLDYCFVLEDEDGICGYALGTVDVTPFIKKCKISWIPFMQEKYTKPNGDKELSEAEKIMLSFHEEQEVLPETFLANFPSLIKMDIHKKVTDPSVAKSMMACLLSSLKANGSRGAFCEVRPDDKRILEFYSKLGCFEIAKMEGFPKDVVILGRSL
Outline: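 Full-length recombinant human OGA with fluorogenic 4-MUGlcNAc in McIlvaine buffer pH 6.4, 0.01% BSA; 90 min at room temperature, glycine pH 10 quench, fluorescence Ex 355/Em 460 nm. 10-point, 4-fold dilution from 20 μM; 4-parameter variable-slope fit.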

OGA (S400 O-GLCNAC) = OGA (S400 O-GLCNAC) (Homo sapiens (Human), UniProt O60502); experiment: Cellular OGA-Tau MSD Assay; type: cell-based; conditions: HEK-293T cells transfected with OGT and Tau-V5; Tau-S400-GlcNAc MSD readout
Chain of OGA (S400 O-GLCNAC) (O60502 whole entry): as above
Outline: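 HEK-293T cells transiently co-expressing OGT and Tau-V5 were treated overnight at 37° C with compounds (top 1 uM, 3-fold, 10 points). Lysate Tau was captured on V5 antibody, and S400-GlcNAc was detected by MSD electrochemiluminescence. IC50 was derived from a 4-parameter fit of normalized % activity.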

Compound	efflux ratio at 2 hr (P-gp (MDR1))	RLM % Qh (%) [1]	IC50 [2]	IC50 (OGA (S400 O-GLCNAC))
COc1nccc2c1COC21CCCN(Cc2cnc(NC(C)=O)s2)C1 (centres unmarked) [Example 82, N-(5-((4-Methoxy-3H-spiro[furo[3,4-c]pyridine-1,3′-piperidin]-1′-yl)methyl)thiazol-2-yl)acetamide]	4.4	78%	1.6 nM	126 nM
CC(=O)Nc1ncc(CN2CCC3(Cc4cnc(Cl)cc4O3)C2)s1 (centres unmarked) [Example 8, N-(5-((6-Chloro-3H-spiro[furo[3,2-c]pyridine-2,3′-pyrrolidin]-1′-yl)methyl)thiazol-2-yl)acetamide]	9.4	47%	74 nM	654 nM
COc1cc2c(cn1)[C@@]1(C[C@H](C)N(Cc3cnc(NC(C)=O)s3)C1)OC2 (single isomer, unassigned) [Example 76-b]	8.9	89%	160 nM	38 nM
CC(=O)Nc1nc(F)c(CN2C[C@@]3(Cc4cc(=O)[nH]cc4O3)C[C@@H]2C)s1 [Example 49, N-(4-Fluoro-5-(((2R,5′S)-5′-methyl-5-oxo-5,6-dihydro-3H-spiro[furo[2,3-c]pyridine-2,3′-pyrrolidin]-1′-yl)methyl)thiazol-2-yl)acetamide]	2.5	16%	1 nM	73 nM
CC(=O)Nc1nc(F)c(CN2C[C@@]3(Cc4cc(=O)n(C)cc4O3)C[C@@H]2C)s1 [Example 48, N-(5-(((2R,5′S)-5′,6-Dimethyl-5-oxo-5,6-dihydro-3H-spiro[furo[2,3-c]pyridine-2,3′-pyrrolidin]-1′-yl)methyl)-4-fluorothiazol-2-yl)acetamide]	12	16%	1.4 nM	34 nM
CC(=O)Nc1ncc(CN2CCCC3(CCCO3)C2)s1 (centres unmarked) [Example 52, N-(5-((1-Oxa-7-azaspiro[4.5]decan-7-yl)methyl)thiazol-2-yl)acetamide]	2.6	74%	180 nM	> 1000 nM
CC(=O)Nc1nc(F)c(CN2C[C@@]3(Cc4cc(N5CCN(C)CC5)ncc4O3)C[C@@H]2C)s1 [Example 45, N-(4-Fluoro-5-(((2R,5′S)-5′-methyl-5-(4-methylpiperazin-1-yl)-3H-spiro[furo[2,3-c]pyridine-2,3′-pyrrolidin]-1′-yl)methyl)thiazol-2-yl)acetamide]	94	65%	< 1 nM	3 nM
CC(=O)Nc1nc(F)c(CN2CCCC3(C2)OCc2ccncc23)s1 (centres unmarked) [Example 73, N-(5-((1H-Spiro[furo[3,4-c]pyridine-3,3′-piperidin]-1′-yl)methyl)-4-fluorothiazol-2-yl)acetamide]	21.6	78%	9.2 nM	23.7 nM
CC(=O)Nc1ncc(CN2C[C@@]3(Cc4cc(C(F)(F)F)ncc4O3)C[C@@H]2C)s1 [Example 22, N-(5-(((2R,5′S)-5′-Methyl-5-(trifluoromethyl)-3H-spiro[furo[2,3-c]pyridine-2,3′-pyrrolidin]-1′-yl)methyl)thiazol-2-yl)acetamide]	11	39%	17 nM	25 nM
CC(=O)Nc1nc(F)c(CN2C[C@@]3(Cc4cc(N5C[C@@H](C)O[C@H](C)C5)ncc4O3)C[C@@H]2C)s1 [Example 41, N-(5-(((2R,5′S)-5-((2R,6R)-2,6-Dimethylmorpholino)-5′-methyl-3H-spiro[furo[2,3-c]pyridine-2,3′-pyrrolidin]-1′-yl)methyl)-4-fluorothiazol-2-yl)acetamide]	19.5	65%	< 1 nM	8 nM
COc1cccc2c1OC1(CCN(Cc3sc(NC(C)=O)nc3F)C1)C2 (centres unmarked) [Example 4, N-(4-Fluoro-5-((7-methoxy-3H-spiro[benzofuran-2,3′-pyrrolidin]-1′-yl)methyl)thiazol-2-yl)acetamide]	3.1	78%	360 nM	> 1000 nM
CC(=O)Nc1nc(F)c(CN2C[C@@]3(Cc4cc(N5C[C@@H](C)O[C@@H](C)C5)ncc4O3)C[C@@H]2C)s1 [Example 39, N-(5-(((2R,5′S)-5-((2R,6S)-2,6-Dimethylmorpholino)-5′-methyl-3H-spiro[furo[2,3-c]pyridine-2,3′-pyrrolidin]-1′-yl)methyl)-4-fluorothiazol-2-yl)acetamide]	9.7	52%	0.5 nM	4.9 nM
CNc1cc2c(cn1)O[C@]1(C2)C[C@H](C)N(Cc2sc(NC(C)=O)nc2F)C1 [Example 29, N-(4-Fluoro-5-(((2R,5′S)-5′-methyl-5-(methylamino)-3H-spiro[furo[2,3-c]pyridine-2,3′-pyrrolidin]-1′-yl)methyl)thiazol-2-yl)acetamide]	17.7	55%	< 1 nM	3 nM
CC(=O)Nc1ncc(CN2C[C@@]3(Cc4cc(N5C[C@@H](C)O[C@H](C)C5)ncc4O3)C[C@@H]2C)s1 [Example 40, N-(5-(((2R,5′S)-5-((2R,6R)-2,6-Dimethylmorpholino)-5′-methyl-3H-spiro[furo[2,3-c]pyridine-2,3′-pyrrolidin]-1′-yl)methyl)thiazol-2-yl)acetamide]	27	54%	1.5 nM	14 nM
CC(=O)Nc1nc(F)c(CN2CC3(C[C@@H]2C)OCc2cccnc23)s1 (stereo partly drawn) [Example 63, N-(4-Fluoro-5-(((5′S)-5′-methyl-5H-spiro[furo[3,4-b]pyridine-7,3′-pyrrolidin]-1′-yl)methyl)thiazol-2-yl)acetamide]	26	78%	13 nM	57 nM
CC(=O)Nc1nc(F)c(CN2CCCC3(COc4ccccc43)C2)s1 (centres unmarked) [Example 54, N-(5-((2H-Spiro[benzofuran-3,3′-piperidin]-1′-yl)methyl)-4-fluorothiazol-2-yl)acetamide]	0.8	94%	1500 nM	> 1000 nM
CC(=O)Nc1nc(F)c(CN2C[C@@]3(Cc4cc(Cl)ncc4O3)C[C@@H]2C)s1 [Example 10, N-(5-(((2R,5′S)-5-Chloro-5′-methyl-3H-spiro[furo[2,3-c]pyridine-2,3′-pyrrolidin]-1′-yl)methyl)-4-fluorothiazol-2-yl)acetamide]	5.2	75%	1 nM	8 nM
CC(=O)Nc1ncc(CN2CCCC3(C2)OCc2ccncc23)s1 (centres unmarked) [Example 74, N-(5-((1H-Spiro[furo[3,4-c]pyridine-3,3′-piperidin]-1′-yl)methyl)thiazol-2-yl)acetamide]	36.5	75%	13 nM	22.6 nM
COc1nccc2c1COC21CCCN(Cc2sc(NC(C)=O)nc2F)C1 (centres unmarked) [Example 81, N-(4-Fluoro-5-((4-methoxy-3H-spiro[furo[3,4-c]pyridine-1,3′-piperidin]-1′-yl)methyl)thiazol-2-yl)acetamide]	2.5	78%	1.1 nM	15.1 nM
CC(=O)Nc1ncc(CN2C[C@@]3(Cc4cc(N5CCC5)ncc4O3)C[C@@H]2C)s1 [Example 35, N-(5-(((2R,5′S)-5-(Azetidin-1-yl)-5′-methyl-3H-spiro[furo[2,3-c]pyridine-2,3′-pyrrolidin]-1′-yl)methyl)thiazol-2-yl)acetamide]	39.5	50%	< 1 nM	4 nM
CC(=O)Nc1nc(F)c(CN2CCC3(Cc4cnc(Cl)cc4O3)C2)s1 (centres unmarked) [Example 7, N-(5-((6-Chloro-3H-spiro[furo[3,2-c]pyridine-2,3′-pyrrolidin]-1′-yl)methyl)-4-fluorothiazol-2-yl)acetamide]	6.7	46%	54 nM	301 nM
CC(=O)Nc1nc(F)c(CN2C[C@@]3(Cc4cc(C(F)F)ncc4O3)C[C@@H]2C)s1 [Example 26, N-(5-(((2R,5′S)-5-(Difluoromethyl)-5′-methyl-3H-spiro[furo[2,3-c]pyridine-2,3′-pyrrolidin]-1′-yl)methyl)-4-fluorothiazol-2-yl)acetamide]	5.6	51%	3 nM	5 nM
CC(=O)Nc1ncc(CN2CCC3(Cc4ccccc4O3)C2)s1 (centres unmarked) [Example 3, N-(5-((3H-Spiro[benzofuran-2,3′-pyrrolidin]-1′-yl)methyl)thiazol-2-yl)acetamide]	1.7	81%	330 nM	1000 nM
